Source: patent US20100298141A1, “SUBSTITUTED PYRIDINE N-OXIDE HERBICIDES” (E. I. DU PONT DE NEMOURS AND COMPANY, priority 2007, published 2010)

Columns and labels:
giant foxtail = experiment: Test A pre-/postemergence greenhouse test; assay type: in vivo, Setaria faberi; conditions: for Foxtail, Giant plant response rating: 0 to 100 scale; for Plant response rating, Foxtail, Giant: 0 to 100 scale where 0 is no effect and 100 is complete control
How it was run: (§1)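 Pre: directed soil spray on seeded loam/sand. Post: foliar spray, plants 2–10 cm, 1–2 leaf stage, applied concurrently. Vehicle: non-phytotoxic solvent + surfactant. Greenhouse ~10 d; visual injury rating vs untreated controls.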

barnyardgrass [1] = experiment: Test C flooded paddy test; assay type: in vivo, Echinochloa crus-galli; conditions: Flood
How it was run: (§2)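 Compound was added to standing water 3 cm above soil, flood maintained, and plants held in a greenhouse before visual scoring against controls at 13 to 15 days.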

velvetleaf = experiment: Test A pre-/postemergence greenhouse test; assay type: in vivo, Abutilon theophrasti; conditions: for Velvetleaf plant response rating: 0 to 100 scale; for Plant response rating, Velvetleaf: 0 to 100 scale where 0 is no effect and 100 is complete control
How it was run: as §1

barnyardgrass [2] = experiment: Test A pre-/postemergence greenhouse test; assay type: in vivo, Echinochloa crus-galli; conditions: for Barnyardgrass plant response rating: 0 to 100 scale; for Plant response rating, Barnyardgrass: 0 to 100 scale where 0 is no effect and 100 is complete control
How it was run: as §1

corn = experiment: Test A pre-/postemergence greenhouse test; assay type: in vivo, Zea mays; conditions: for Corn plant response rating: 0 to 100 scale; for Plant response rating, Corn: 0 to 100 scale where 0 is no effect and 100 is complete control
How it was run: as §1

redroot pigweed = experiment: Test A pre-/postemergence greenhouse test; assay type: in vivo, Amaranthus retroflexus; conditions: for Pigweed plant response rating: 0 to 100 scale; for Plant response rating, Pigweed: 0 to 100 scale where 0 is no effect and 100 is complete control
How it was run: as §1

rice = experiment: Test C flooded paddy test; assay type: in vivo, Oryza sativa; conditions: Flood
How it was run: as §2

morningglory = experiment: Test A pre-/postemergence greenhouse test; assay type: in vivo, Ipomoea spp.; conditions: for Morningglory plant response rating: 0 to 100 scale; for Plant response rating, Morningglory: 0 to 100 scale where 0 is no effect and 100 is complete control
How it was run: as §1

crabgrass = experiment: Test A pre-/postemergence greenhouse test; assay type: in vivo, Digitaria sanguinalis; conditions: for Crabgrass, Large plant response rating: 0 to 100 scale; for Plant response rating, Crabgrass, Large: 0 to 100 scale where 0 is no effect and 100 is complete control
How it was run: as §1

wheat = experiment: Test A pre-/postemergence greenhouse test; assay type: in vivo, Triticum aestivum; conditions: for Wheat plant response rating: 0 to 100 scale; for Plant response rating, Wheat: 0 to 100 scale where 0 is no effect and 100 is complete control
How it was run: as §1

umbrella sedge = experiment: Test C flooded paddy test; assay type: in vivo, Cyperus difformis; conditions: Flood
How it was run: as §2

duck salad = experiment: Test C flooded paddy test; assay type: in vivo, Heteranthera limosa; conditions: Flood
How it was run: as §2

[3] = Postemergence, 125 g ai/ha, 0 is no effect, 100 is complete control
[4] = Postemergence, 500 g ai/ha, 0 is no effect, 100 is complete control
[5] = Preemergence, 125 g ai/ha, 0 no effect, 100 complete control
[6] = 31 g ai/ha, scale 0 to 100 (0 no effect, 100 complete control)
[7] = 62 g ai/ha, scale 0 to 100, 0 no effect, 100 complete control, 13 to 15 days
[8] = 125 g ai/ha, scale 0 to 100, 0 no effect, 100 complete control, 13 to 15 days
[9] = 250 g ai/ha, scale 0 to 100, 0 no effect, 100 complete control, 13 to 15 days
[10] = 62 g ai/ha, scale 0 to 100 (0 no effect, 100 complete control)

Cn1nc(C(F)(F)F)c(CS(=O)(=O)c2cc(Br)cc[n+]2[O-])c1Cl [Compound 32]
Foxtail, Giant plant response rating (giant foxtail; [3]): 0
Foxtail, Giant plant response rating (giant foxtail; [4]): 0
Foxtail, Giant plant response rating (giant foxtail; [5]): 0
Plant response rating, Foxtail, Giant (giant foxtail; Preemergence, 500 g ai/ha): 70
Plant response rating, Barnyardgrass (barnyardgrass [1]; [6]): 0
Plant response rating, Barnyardgrass (barnyardgrass [1]; [7]): 0
Plant response rating, Barnyardgrass (barnyardgrass [1]; [8]): 0
Plant response rating, Barnyardgrass (barnyardgrass [1]; [9]): 0
Velvetleaf plant response rating (velvetleaf; [3]): 0
Velvetleaf plant response rating (velvetleaf; [4]): 0
Velvetleaf plant response rating (velvetleaf; [5]): 0
Plant response rating, Velvetleaf (velvetleaf; Preemergence, 500 g ai/ha): 0
Barnyardgrass plant response rating (barnyardgrass [2]; [3]): 0
Barnyardgrass plant response rating (barnyardgrass [2]; [4]): 30
Barnyardgrass plant response rating (barnyardgrass [2]; [5]): 0
Plant response rating, Barnyardgrass (barnyardgrass [2]; Preemergence, 500 g ai/ha): 60
Corn plant response rating (corn; [3]): 0
Corn plant response rating (corn; [4]): 0
Corn plant response rating (corn; [5]): 0
Plant response rating, Corn (corn; Preemergence, 500 g ai/ha): 20
Pigweed plant response rating (redroot pigweed; [3]): 0
Pigweed plant response rating (redroot pigweed; [4]): 0
Pigweed plant response rating (redroot pigweed; [5]): 0
Plant response rating, Pigweed (redroot pigweed; Preemergence, 500 g ai/ha): 100
Plant response rating, Rice (rice; [6]): 0
Plant response rating, Rice (rice; [7]): 0
Plant response rating, Rice (rice; [8]): 0
Plant response rating, Rice (rice; [9]): 0
Morningglory plant response rating (morningglory; [3]): 0
Morningglory plant response rating (morningglory; [4]): 10
Morningglory plant response rating (morningglory; [5]): 0
Plant response rating, Morningglory (morningglory; Preemergence, 500 g ai/ha): 0
Crabgrass, Large plant response rating (crabgrass; [3]): 0
Crabgrass, Large plant response rating (crabgrass; [4]): 0
Crabgrass, Large plant response rating (crabgrass; [5]): 0
Plant response rating, Crabgrass, Large (crabgrass; Preemergence, 500 g ai/ha): 0
Wheat plant response rating (wheat; [3]): 0
Wheat plant response rating (wheat; [4]): 0
Wheat plant response rating (wheat; [5]): 0
Plant response rating, Wheat (wheat; Preemergence, 500 g ai/ha): 30
Plant response rating, Sedge, Umbrella (umbrella sedge; [6]): 0
Plant response rating, Sedge, Umbrella (umbrella sedge; [7]): 0
Plant response rating, Sedge, Umbrella (umbrella sedge; [8]): 0
Plant response rating, Sedge, Umbrella (umbrella sedge; [9]): 50
Plant response rating, Ducksalad (duck salad; [6]): 0
Plant response rating, Ducksalad (duck salad; [7]): 0
Plant response rating, Ducksalad (duck salad; [8]): 0
Plant response rating, Ducksalad (duck salad; [9]): 50

Cn1nc(OC(F)F)c(C[S+]([O-])c2cccc[n+]2[O-])c1C(F)(F)F (stereo not shown) [Compound 74]
Plant response rating, Foxtail, Giant (giant foxtail; Postemergence, 125 g ai/ha): 60
Foxtail, Giant plant response rating (giant foxtail; [4]): 90
Foxtail, Giant plant response rating (giant foxtail; [5]): 80
Plant response rating, Foxtail, Giant (giant foxtail; Preemergence, 500 g ai/ha): 90
Plant response rating, Barnyardgrass (barnyardgrass [1]; [10]): 15
Plant response rating, Barnyardgrass (barnyardgrass [1]; [9]): 30
Plant response rating, Velvetleaf (velvetleaf; Postemergence, 125 g ai/ha): 20
Velvetleaf plant response rating (velvetleaf; [4]): 70
Velvetleaf plant response rating (velvetleaf; [5]): 0
Plant response rating, Velvetleaf (velvetleaf; Preemergence, 500 g ai/ha): 60
Plant response rating, Barnyardgrass (barnyardgrass [2]; Postemergence, 125 g ai/ha): 50
Barnyardgrass plant response rating (barnyardgrass [2]; [4]): 80
Barnyardgrass plant response rating (barnyardgrass [2]; [5]): 70
Plant response rating, Barnyardgrass (barnyardgrass [2]; Preemergence, 500 g ai/ha): 90
Plant response rating, Corn (corn; Postemergence, 125 g ai/ha): 0
Corn plant response rating (corn; [4]): 60
Corn plant response rating (corn; [5]): 0
Plant response rating, Corn (corn; Preemergence, 500 g ai/ha): 80
Plant response rating, Pigweed (redroot pigweed; Postemergence, 125 g ai/ha): 50
Pigweed plant response rating (redroot pigweed; [4]): 60
Pigweed plant response rating (redroot pigweed; [5]): 60
Plant response rating, Pigweed (redroot pigweed; Preemergence, 500 g ai/ha): 70
Plant response rating, Rice (rice; [10]): 10
Plant response rating, Rice (rice; [9]): 10
Plant response rating, Morningglory (morningglory; Postemergence, 125 g ai/ha): 40
Morningglory plant response rating (morningglory; [4]): 80
Morningglory plant response rating (morningglory; [5]): 20
Plant response rating, Morningglory (morningglory; Preemergence, 500 g ai/ha): 90
Plant response rating, Crabgrass, Large (crabgrass; Postemergence, 125 g ai/ha): 40
Crabgrass, Large plant response rating (crabgrass; [4]): 80
Crabgrass, Large plant response rating (crabgrass; [5]): 60
Plant response rating, Crabgrass, Large (crabgrass; Preemergence, 500 g ai/ha): 90
Plant response rating, Wheat (wheat; Postemergence, 125 g ai/ha): 20
Wheat plant response rating (wheat; [4]): 60
Wheat plant response rating (wheat; [5]): 0
Plant response rating, Wheat (wheat; Preemergence, 500 g ai/ha): 90
Plant response rating, Sedge, Umbrella (umbrella sedge; [10]): 0
Plant response rating, Sedge, Umbrella (umbrella sedge; [9]): 50
Plant response rating, Ducksalad (duck salad; [10]): 70
Plant response rating, Ducksalad (duck salad; [9]): 65
